Legend:
[1] = system: CA46; assay: XTT antiproliferative assay; assay type: cell-based; conditions: Homo sapiens, 120 h; CA46, Non-Hodgkin's Lymphoma; 5 days incubation
Experimental: (§1) Antiproliferative activity of LOR-253 was determined by XTT assay as follows. Adherent cells (2×10^3/well) in 100 μL of growth medium were seeded in 96-well cell culture plates and incubated overnight at 37° C. The medium was removed and replaced with a total volume of 100 μL growth medium containing LOR-253 (or 0.1% DMSO vehicle control), as described in the respective experiments. Suspension cells were plated (4-6×10^3/well) in 50 μL growth medium, and 50 μL growth medium containing LOR-253 (or 0.1% DMSO vehicle control) was added to each well. After incubation of the cells at 37° C. for 5 days, cell viability was quantitated with the use of sodium 3′-[1-(phenylamino-carbonyl)-3,4-tetrazolium}-bis(4-methoxy-6-nitro)benzene sulfonic acid hydrate (XTT) colorimetric assay (Roche). XTT labeling reagent (1 mg/mL) was mixed with electron-coupling reagent, following the manufacturer's instructions, and 50 μL of the mixture was added directly to the cells. The plates were further incubated at 37° C. for 4 h, and the absorbance of each well was measured at 490 nm with a multiwell spectrophotometer (Bio-Tek Instruments Inc.). The data were adjusted relative to the blank and expressed as a percentage of cell growth compared with the vehicle control. (Ref. Huesca et al., Mol Cancer Ther. 2009. 8:2586-96; Lorus publication on LOR-133)

[2] = system: DB; assay: XTT antiproliferative assay; assay type: cell-based; conditions: Homo sapiens, 120 h, Non-Hodgkin's Lymphoma, 5 days incubation
Experimental: as §1

[3] = system: HEL92.1.7; assay: XTT antiproliferative assay; assay type: cell-based; conditions: Homo sapiens, HEL 92.1.7, 120 h; HEL92.1.7, Acute myeloid leukemia; 5 days incubation
Experimental: as §1

[4] = system: HL-60; assay: XTT antiproliferative assay; assay type: cell-based; conditions: Homo sapiens, 120 h; HL-60, Acute myeloid leukemia; 5 days incubation
Experimental: as §1

[5] = system: Jurkat; assay: XTT antiproliferative assay; assay type: cell-based; conditions: Homo sapiens, 120 h, Acute lymphoblastic leukemia, 5 days incubation
Experimental: as §1

[6] = system: K562; assay: XTT antiproliferative assay; assay type: cell-based; conditions: Homo sapiens, 120 h; K562, Chronic Myelogenous Leukemia; 5 days incubation
Experimental: as §1

[7] = system: KG-1; assay: XTT antiproliferative assay; assay type: cell-based; conditions: Homo sapiens, 120 h; KG-1, Acute myeloid leukemia; 5 days incubation
Experimental: as §1

[8] = system: MOLM13 (CD47+); assay: XTT antiproliferative assay; assay type: cell-based; conditions: Homo sapiens, MOLM-13, 120 h, Acute myeloid leukemia, 5 days incubation
Experimental: as §1

[9] = system: MOLT-4; assay: XTT antiproliferative assay; assay type: cell-based; conditions: Homo sapiens, 120 h; MOLT-4, Acute lymphoblastic leukemia; 5 days incubation
Experimental: as §1

[10] = system: MV-4-11; assay: XTT antiproliferative assay; assay type: cell-based; conditions: Homo sapiens, MV4-11, 120 h; MV-4-11, Acute myeloid leukemia; 5 days incubation
Experimental: as §1

[11] = system: Mino; assay: XTT antiproliferative assay; assay type: cell-based; conditions: Homo sapiens, 120 h, Non-Hodgkin's Lymphoma, 5 days incubation
Experimental: as §1

[12] = system: NB4; assay: XTT antiproliferative assay; assay type: cell-based; conditions: Homo sapiens, NB-4, 120 h; NB4, Acute myeloid leukemia; 5 days incubation
Experimental: as §1

[13] = system: OCI-AML2; assay: XTT antiproliferative assay; assay type: cell-based; conditions: Homo sapiens, 120 h; OCI-AML2, Acute myeloid leukemia; 5 days incubation
Experimental: as §1

[14] = system: RL; assay: XTT antiproliferative assay; assay type: cell-based; conditions: Homo sapiens, 120 h, Non-Hodgkin's Lymphoma, 5 days incubation
Experimental: as §1

[15] = system: SKM-1; assay: XTT antiproliferative assay; assay type: cell-based; conditions: Homo sapiens, 120 h; SKM-1, Acute myeloid leukemia; 5 days incubation
Experimental: as §1

[16] = system: Toledo; assay: XTT antiproliferative assay; assay type: cell-based; conditions: Homo sapiens, 120 h, Non-Hodgkin's Lymphoma, 5 days incubation
Experimental: as §1

[17] = system: HL-60; assay: KLF4/p21 induction, quantitative RT-PCR; assay type: cell-based, human; conditions: 0.5 μM, 16 hours
Experimental: (§2) To determine if KLF4 and/or p21 expressions are induced by LOR-253, AML cells (THP1, HL-60) were treated with DMSO (vehicle control) or 0.5 μM LOR-253 for 16 hours. Total RNA was extracted using the TRIzol Plus RNA Purification kit (Ambion, Life Technologies), according to the manufacturer's instructions. First strand cDNA was synthesized from 1-2 ug total RNA using random hexamer primers (Invitrogen) and the SuperScript II Reverse Transcriptase kit (Invitrogen). Quantitative RT-PCR was performed in the ABI Prism 7000 Sequence Detection System using cDNAs and human TaqMan Gene Expression Assay primer/probe sets for Krüppel-like factor 4 (KLF4), cyclin-dependent kinase inhibitor 1A (p21) and the ABI TaqMan Universal PCR master mix protocol. Gene expression was normalized with β-actin gene expression in the same sample, and fold changes in KLF4 or p21 were expressed relative to the corresponding expression level in the DMSO treated samples using the comparative CT method.

[18] = system: THP1; assay: KLF4/p21 induction, quantitative RT-PCR; assay type: cell-based, human; conditions: 0.5 μM, 16 hours
Experimental: as §2

[19] = system: HL-60; assay: Cell cycle analysis, propidium iodide flow cytometry; assay type: cell-based; conditions: 0.5 μM, 16 hours
Experimental: (§3) THP1 and HL-60 AML cell lines were treated with DMSO (vehicle control) or 0.5 μM LOR-253 for 16 hours. Cells were washed once in PBS+1% FCS and fixed using ice cold 70% ethanol overnight. Fixed cells were washed twice, resuspended in PI/RNaseA solution, containing 20 μg/mL propidium iodide and 250 μg/mL RNaseA, and stained for 30 minutes at 37° C. Stained cells were analyzed using a BD FACSCalibur flow cytometer.

[20] = system: THP1; assay: as above; assay type: cell-based; conditions: 0.5 μM, 16 hours
Experimental: as §3

[21] = system: KLF4 protein; assay: Pharmacodynamic response, KLF4 protein level in tumors; assay type: in vivo; conditions: mice; 1, 5 and 15 mg/kg for 5 consecutive days; 16 hours after last dose
Experimental: To study the pharmacodynamic (PD) responses, mice were treated for 5 consecutive days with 1, 5, and 15 mg/kg LOR-253. Tumors were measured 16 hours after the last dose, and the KLF-4 protein level was measured.

[22] = Repeat-dose toxicity study; assay type: in vivo; conditions: dogs, highest dose tested
[23] = biological target: hERG (Homo sapiens, UniProt Q12809); assay: hERG tail current density
[24] = GLP blood compatibility studies

Chain of hERG (Q12809 whole entry): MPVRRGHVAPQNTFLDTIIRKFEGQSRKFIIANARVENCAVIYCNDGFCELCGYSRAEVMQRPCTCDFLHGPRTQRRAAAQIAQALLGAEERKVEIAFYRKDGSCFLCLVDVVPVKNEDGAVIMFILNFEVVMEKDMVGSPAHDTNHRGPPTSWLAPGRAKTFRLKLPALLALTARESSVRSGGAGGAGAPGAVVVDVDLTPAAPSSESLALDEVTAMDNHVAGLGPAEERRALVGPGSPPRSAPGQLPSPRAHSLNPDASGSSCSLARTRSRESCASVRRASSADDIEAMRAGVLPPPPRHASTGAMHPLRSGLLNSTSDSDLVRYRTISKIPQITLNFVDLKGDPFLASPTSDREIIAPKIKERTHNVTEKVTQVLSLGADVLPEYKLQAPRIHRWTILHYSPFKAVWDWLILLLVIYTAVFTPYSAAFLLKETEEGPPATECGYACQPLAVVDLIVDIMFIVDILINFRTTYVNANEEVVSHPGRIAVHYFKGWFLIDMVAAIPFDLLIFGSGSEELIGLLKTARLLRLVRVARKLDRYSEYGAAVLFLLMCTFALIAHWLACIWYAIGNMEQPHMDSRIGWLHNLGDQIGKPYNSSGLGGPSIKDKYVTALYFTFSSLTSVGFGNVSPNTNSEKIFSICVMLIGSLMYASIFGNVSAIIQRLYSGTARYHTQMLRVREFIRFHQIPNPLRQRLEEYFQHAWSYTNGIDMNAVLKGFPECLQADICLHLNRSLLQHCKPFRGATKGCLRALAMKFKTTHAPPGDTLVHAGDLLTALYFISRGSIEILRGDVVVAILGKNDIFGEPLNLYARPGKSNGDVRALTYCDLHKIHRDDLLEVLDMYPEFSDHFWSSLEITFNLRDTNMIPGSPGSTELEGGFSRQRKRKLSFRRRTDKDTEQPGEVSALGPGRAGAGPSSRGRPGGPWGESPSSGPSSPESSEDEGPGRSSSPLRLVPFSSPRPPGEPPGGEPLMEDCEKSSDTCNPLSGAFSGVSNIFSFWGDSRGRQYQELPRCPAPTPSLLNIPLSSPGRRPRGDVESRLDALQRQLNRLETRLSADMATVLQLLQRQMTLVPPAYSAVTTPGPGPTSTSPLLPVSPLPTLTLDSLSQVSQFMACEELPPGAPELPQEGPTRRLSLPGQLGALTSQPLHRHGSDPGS

Compound `Cc1[nH]c2ccc(F)cc2c1-c1nc2c3cccnc3c3ncccc3c2[nH]1` [LOR-253] has an IC50 [1] of 190 nM, an IC50 [2] of 99 nM and an IC50 [3] of 305 nM. For the same compound, the IC50 [4] was 46 nM, the IC50 [5] was 71 nM and the IC50 [6] was 250 nM. It also gave an IC50 [7] of 33 nM, an IC50 [8] of 130 nM and an IC50 [9] of 70 nM. The IC50 [10] was 69 nM, the IC50 [11] was 140 nM and the IC50 [12] was 60 nM. It also gave an IC50 [13] of 76 nM, an IC50 [14] of 190 nM and an IC50 [15] of 145 nM. For the same compound, the IC50 [16] was 77 nM, the “KLF4 expression (fold change vs DMSO)” value [17] was “increased expression” and the “p21 expression (fold change vs DMSO)” value [17] was “increased expression”. For the same compound, the “KLF4 expression (fold change vs DMSO)” value [18] was “increased expression”, the “p21 expression (fold change vs DMSO)” value [18] was “increased expression” and the cell cycle effect [19] was “G1/S cell cycle arrest”. For the same compound, the cell cycle effect [20] was “G1/S cell cycle arrest”, the “average KLF4 protein levels in tumors” value [21] was “increased in a dose-dependent manner” and the cardiovascular effects [22] was “no treatment-related cardiovascular effects”. For the same compound, the “inhibition of hERG tail current density” value [23] was “no significant inhibition” and the “blood compatibility of IV formulation” value [24] was “confirmed the suitability of IV formulation”.
